Common to all, as to assay type: functional
In test [1] the test system is Trypanosoma cruzi. In words: Trypanocidal activity against trypomastigote stage of Trypanosoma cruzi NINOA infected in NIH mouse blood assessed as parasite lysis at 10 ug/ml after 24 hrs by optical microscopic method relative to control.
Test [2] relates to Trypanosoma cruzi. The test can be described thus: Trypanocidal activity against trypomastigote stage of Trypanosoma cruzi INC-5 infected in NIH mouse blood assessed as parasite lysis at 10 ug/ml after 24 hrs by optical microscopic method relative to control.
Test [3] has as its system Trypanosoma cruzi. The test can be described thus: Trypanocidal activity against trypomastigote stage of Trypanosoma cruzi NINOA infected in NIH mouse blood assessed as […] parasite lysis after 24 hrs by optical microscopic method.
Test [4] relates to Trypanosoma cruzi. The test can be described thus: Trypanocidal activity against trypomastigote stage of Trypanosoma cruzi INC-5 infected in NIH mouse blood assessed as parasite lysis after 24 hrs by optical microscopic method. The following applies: INC-5, Blood.

For `Cc1ccc2c(c1)C(=O)N(C(CC(=O)O)c1cccs1)C2=O` (stereo unspecified), the figures for the Activity in test [1] and in test [2] were 47% and 48%, respectively.
Regarding `Cc1ccc2c(c1)C(=O)N(C(CC(=O)O)c1ccc(F)cc1)C2=O` (stereo unspecified), the Activity is listed as 63% in test [1] and 56% in test [2]. The 50% lethal concentration (LC50) in test [3] is 45.2 µM; in test [4], 74.6 µM.
As for `Cc1ccc(C(CC(=O)O)N2C(=O)c3ccccc3C2=O)cc1` (stereo unspecified), the Activity was 23% in test [1] and 22% in test [2].
In the same order, the values of `NC(CC(=O)O)c1ccc(F)cc1` (stereo unspecified) are 35% and 62%.
In the same order, the values of `NC(CC(=O)O)c1ccc(Cl)cc1` (stereo unspecified) are 13% and 73%.
In the same order, the values of `O=C(O)CC(c1ccc2c(c1)OCCO2)N1C(=O)c2ccc(C(=O)O)cc2C1=O` (stereo unspecified) are 33% and 47%.
As to `CCc1ccc(C(CC(=O)O)N2C(=O)c3ccc(C(=O)O)cc3C2=O)cc1` (stereo unspecified), the Activity stood at 23% in test [1] and 61% in test [2].
Regarding `NC(CC(=O)O)c1ccc([N+](=O)[O-])cc1` (stereo unspecified), the values for the Activity in test [1] and in test [2] were 50% and 68%, respectively. Further, the LC50 worked out at 125 µM in test [3] and 249 µM in test [4].
As to `O=C(O)CC(c1cccs1)N1C(=O)c2ccccc2C1=O` (stereo unspecified), the results for the Activity in test [1] and in test [2] were 22% and 25%, respectively.
In the same order, the values of `CCc1ccc(C(CC(=O)O)N2C(=O)c3ccc(C)cc3C2=O)cc1` (stereo unspecified) are 65% and 59%.
In the case of `NC(CC(=O)O)c1ccc(-c2ccccc2)cc1` (stereo unspecified), the Activity was 32% in test [1] and 37% in test [2].
Consider `Cc1ccc2c(c1)C(=O)N(C(CC(=O)O)c1ccc(Cl)cc1)C2=O` (stereo unspecified), for which the Activity is listed as 52% in test [1] and 51% in test [2]. In addition, the median lethal concentration (LC50) in test [3] is 37.7 µM; in test [4], 52 µM.
Turning to `O=C(O)CC(c1ccc([N+](=O)[O-])cc1)N1C(=O)c2ccccc2C1=O` (stereo unspecified), the Activity worked out at 62% in test [1] and 80% in test [2]. For the same molecule, the median lethal concentration (LC50) in test [3] stood at 53.5 µM; in test [4] it was 119 µM.
The matching figures for `COc1ccc(C(CC(=O)O)N2C(=O)c3ccc(C)cc3C2=O)cc1` (stereo unspecified): 78%, 57%, 65.6 µM and 59.5 µM.
Regarding `COc1ccc(C(CC(=O)O)N2C(=O)c3ccccc3C2=O)cc1` (stereo unspecified), the Activity in test [1] turned out to be 24%; in test [2], 9%.
The matching figures for `O=C(O)CC(c1cc2c(cc1[N+](=O)[O-])OCCO2)N1C(=O)c2ccccc2C1=O` (stereo unspecified): 54% and 13%.
The matching figures for `O=C(O)CC(c1ccc(-c2ccccc2)cc1)N1C(=O)c2ccc(C(=O)O)cc2C1=O` (stereo unspecified): 17% and 57%.
In the same order, the values of `COc1ccc(C(CC(=O)O)N2C(=O)c3ccc(C(=O)O)cc3C2=O)cc1` (stereo unspecified) are 72% and 32%.
Regarding `O=C(O)CC(c1ccc(Br)cc1)N1C(=O)c2ccccc2C1=O` (stereo unspecified), the Activity stood at 8% in test [1] and 15% in test [2].
Regarding `Cc1ccc(C(CC(=O)O)N2C(=O)c3ccc(C)cc3C2=O)cc1` (stereo unspecified), the Activity came to 73% in test [1] and 67% in test [2]. The results for the median lethal concentration (LC50) in test [3] and in test [4] were 85.6 µM and 43.6 µM, respectively.
For `O=C(O)CC(c1ccc([N+](=O)[O-])cc1)N1C(=O)c2ccc(C(=O)O)cc2C1=O` (stereo unspecified), the Activity in test [1] stood at 23%; in test [2] it was 63%.
In the case of `Cc1ccc(C(CC(=O)O)N2C(=O)c3ccc(C(=O)O)cc3C2=O)cc1` (stereo unspecified), the Activity in test [1] is 85%; in test [2], 55%. Further, the 50% lethal concentration (LC50) in test [3] was determined as 110 µM; in test [4], 39.9 µM.
`O=C(O)CC(c1ccc(-c2ccccc2)cc1)N1C(=O)c2ccccc2C1=O` (stereo unspecified): the Activity in test [1] is on record as 31%; in test [2], 22%.
`Cc1ccc2c(c1)C(=O)N(C(CC(=O)O)c1ccc(Br)cc1)C2=O` (stereo unspecified): the Activity turned out to be 65% in test [1] and 50% in test [2]. Further, the results for the LC50 in test [3] and in test [4] were 24.6 µM and 23 µM, respectively.
In the same order, the values of `COc1ccc(C(N)CC(=O)O)cc1` (stereo unspecified) are 83%, 54%, 102 µM and 256 µM.
In the same order, the values of `O=C(O)CC(c1ccc(F)cc1)N1C(=O)c2ccccc2C1=O` (stereo unspecified) are 63%, 52%, 90.8 µM and 81.4 µM.
Regarding `O=C(O)CC(c1ccc(Cl)cc1)N1C(=O)c2ccc(C(=O)O)cc2C1=O` (stereo unspecified), the Activity in test [1] was determined as 3%; in test [2], 69%.
The matching figures for `O=C(O)CC(c1ccc(F)cc1)N1C(=O)c2ccc(C(=O)O)cc2C1=O` (stereo unspecified): 10% and 67%.
In the same order, the values of `Cc1ccc2c(c1)C(=O)N(C(CC(=O)O)c1cc3c(cc1[N+](=O)[O-])OCCO3)C2=O` (stereo unspecified) are 47% and 63%.
Regarding `O=C(O)CC(c1ccccc1[N+](=O)[O-])N1C(=O)c2ccc(C(=O)O)cc2C1=O` (stereo unspecified), the Activity in test [1] amounted to 48%; in test [2] it was 68%.
The matching figures for `Cc1ccc2c(c1)C(=O)N(C(CC(=O)O)c1ccc(-c3ccccc3)cc1)C2=O` (stereo unspecified): 25% and 25%.
The matching figures for `NC(CC(=O)O)c1cccs1` (stereo unspecified): 8% and 32%.
The matching figures for `O=C(O)CC(c1ccc2c(c1)OCCO2)N1C(=O)c2ccccc2C1=O` (stereo unspecified): 24% and 41%.
For `Cc1ccc(C(N)CC(=O)O)cc1` (stereo unspecified), the Activity is 78% in test [1] and 59% in test [2]. In addition, the LC50 in test [3] is 184 µM; in test [4] it was 290 µM.
For `Cc1ccc2c(c1)C(=O)N(C(CC(=O)O)c1ccc3c(c1)OCCO3)C2=O` (stereo unspecified), the Activity in test [1] came to 47%; in test [2] it was 40%.
The matching figures for `Cc1ccc2c(c1)C(=O)N(C(CC(=O)O)c1ccc([N+](=O)[O-])cc1)C2=O` (stereo unspecified): 45% and 25%.
`O=C(Cn1ccnc1[N+](=O)[O-])NCc1ccccc1` [BENZNIDAZOLE]: the figures for the Activity in test [1] and in test [2] were 46.3% and 56%, respectively. The LC50 in test [3] was found to be 130 µM; in test [4] it was 124 µM.
With `O=C(O)CC(c1cccs1)N1C(=O)c2ccc(C(=O)O)cc2C1=O` (stereo unspecified), the results for the Activity in test [1] and in test [2] were 67% and 19%, respectively.
Turning to `CCc1ccc(C(CC(=O)O)N2C(=O)c3ccccc3C2=O)cc1` (stereo unspecified), the Activity in test [1] is 22%; in test [2], 8%.
In the same order, the values of `O=C(O)CC(c1cc2c(cc1[N+](=O)[O-])OCCO2)N1C(=O)c2ccc(C(=O)O)cc2C1=O` (stereo unspecified) are 40% and 59%.
In the same order, the values of `NC(CC(=O)O)c1ccccc1[N+](=O)[O-]` (stereo unspecified) are 23% and 63%.
The matching figures for `O=C(O)CC(c1ccc(Cl)cc1)N1C(=O)c2ccccc2C1=O` (stereo unspecified): 36% and 70%.
For `Cc1ccc2c(c1)C(=O)N(C(CC(=O)O)c1ccccc1[N+](=O)[O-])C2=O` (stereo unspecified), the Activity in test [1] worked out at 22%; in test [2] it was 65%.
For the molecule `CCc1ccc(C(N)CC(=O)O)cc1` (stereo unspecified), the Activity in test [1] was 65%; in test [2] it was 50%. The median lethal concentration (LC50) in test [3] was determined as 113 µM; in test [4] it was 264 µM.
Consider `NC(CC(=O)O)c1ccc2c(c1)OCCO2` (stereo unspecified), for which the Activity is reported as 37% in test [1] and 52% in test [2].
The matching figures for `O=C(O)CC(c1ccccc1[N+](=O)[O-])N1C(=O)c2ccccc2C1=O` (stereo unspecified): 56% and 68%.
For the molecule `NC(CC(=O)O)c1cc2c(cc1[N+](=O)[O-])OCCO2` (stereo unspecified), the Activity came to 7% in test [1] and 15% in test [2].
In the same order, the values of `CC1CS(=O)(=O)CCN1/N=C/c1ccc([N+](=O)[O-])o1` (stereo unspecified) [NIFURTIMOX] are 40.74% and 50%.
Take `NC(CC(=O)O)c1ccc(Br)cc1` (stereo unspecified): the figures for the Activity in test [1] and in test [2] were 20% and 18%, respectively.
In the same order, the values of `O=C(O)CC(c1ccc(Br)cc1)N1C(=O)c2ccc(C(=O)O)cc2C1=O` (stereo unspecified) are 23% and 56%.

As a reminder, the LC50 is the concentration that kills 50% of the test population.
